In ChEMBL document CHEMBL1127139, “Synthesis and -lactamase inhibitory activity of 6-hydroxyethyl thiaclavulanic acid” (Bioorg Med Chem Lett, 1993):
Values after ≈ are worked out from the molar mass of the structure shown.

What was measured:
[1] = molecular target: Beta-lactamase (Enterobacter cloacae) (UniProt P05364); assay: Tested for inhibitory activity against beta-lactamase (groupI) Enterobacter cloacae P99 in presence of ampicillin + 80 ug/mL of compound
[2] = molecular target: Beta-lactamase OXA-1 (Escherichia coli) (UniProt P13661); assay: Tested for inhibitory activity against beta-lactamase (groupV) Escherichia coli R57b in presence of ampicillin + 80 ug/mL of compound
[3] = molecular target: Beta-lactamase (Staphylococcus aureus) (UniProt P00807); assay: Tested for inhibitory activity against beta-lactamase (groupII) staphylococcus aureus 39/2 strain in presence of ampicillin + 80 ug/mL of compound
[4] = molecular target: Beta-lactamase (Staphylococcus aureus) (UniProt P00807); assay: Tested for inhibitory activity against beta-lactamase (groupII) staphylococcus aureus 39/2 strain in presence of ampicillin + 20 ug/mL of compound
[5] = molecular target: Beta-lactamase OXA-1 (Escherichia coli) (UniProt P13661); assay: Tested for inhibitory activity against beta-lactamase (groupV) Escherichia coli RGN in presence of ampicillin + 80 ug/mL of compound
[6] = molecular target: T1, Beta-lactamase OXA-9 (Klebsiella aerogenes) (UniProt P0A3M4); assay: Tested for inhibitory activity against beta-lactamase (groupIV) Klebsiella aerogenes 1082E in presence of ampicillin + 80 ug/mL of compound
T1 sequence (whole entry): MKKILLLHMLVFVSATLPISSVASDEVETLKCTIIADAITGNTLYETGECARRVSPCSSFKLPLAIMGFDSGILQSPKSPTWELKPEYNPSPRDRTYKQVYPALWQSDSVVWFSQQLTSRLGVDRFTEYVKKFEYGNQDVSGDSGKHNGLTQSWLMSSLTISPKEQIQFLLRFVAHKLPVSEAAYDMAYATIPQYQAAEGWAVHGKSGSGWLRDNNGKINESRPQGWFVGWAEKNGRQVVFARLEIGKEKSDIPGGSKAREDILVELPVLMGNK

[7] = molecular target: Beta-lactamase TEM (Escherichia coli) (UniProt P62593); assay: Tested for inhibitory activity against beta-lactamase (groupIII) Escherichia coli RPI in presence of ampicillin + 20 ug/mL of compound
[8] = molecular target: Beta-lactamase TEM (Escherichia coli) (UniProt P62593); assay: Tested for inhibitory activity against beta-lactamase (groupIII) Escherichia coli RPI in presence of ampicillin + 80 ug/mL of compound
[9] = molecular target: T1, Beta-lactamase OXA-9 (Klebsiella aerogenes); assay: Tested for inhibitory activity against beta-lactamase (groupIV) Klebsiella aerogenes 1082E in presence of ampicillin + 20 ug/mL of compound
[10] = molecular target: Beta-lactamase OXA-1 (Escherichia coli) (UniProt P13661); assay: Tested for inhibitory activity against beta-lactamase (groupV) Escherichia coli RGN in presence of ampicillin + 20 ug/mL of compound
[11] = molecular target: Beta-lactamase OXA-1 (Escherichia coli) (UniProt P13661); assay: Tested for inhibitory activity against beta-lactamase (groupV) Escherichia coli R57b in presence of ampicillin + 20 ug/mL of compound
[12] = molecular target: Beta-lactamase OXA-1 (Escherichia coli) (UniProt P13661); assay: Tested for inhibitory activity against beta-lactamase (groupV) Escherichia coli RGN
[13] = molecular target: Beta-lactamase OXA-1 (Escherichia coli) (UniProt P13661); assay: Tested for inhibitory activity against beta-lactamase (groupV) Escherichia coli R57b
[14] = molecular target: Beta-lactamase (Enterobacter cloacae) (UniProt P05364); assay: Tested for inhibitory activity against beta-lactamase (groupI) Enterobacter cloacae P99
[15] = molecular target: Beta-lactamase TEM (Escherichia coli) (UniProt P62593); assay: Tested for inhibitory activity against beta-lactamase (groupIII) Escherichia coli RPI
[16] = molecular target: T1, Beta-lactamase OXA-9 (Klebsiella aerogenes); assay: Tested for inhibitory activity against beta-lactamase (groupIV) Klebsiella aerogenes 1082E
[17] = molecular target: Beta-lactamase (Staphylococcus aureus) (UniProt P00807); assay: Tested for inhibitory activity against beta-lactamase (groupII) staphylococcus aureus 39/2 strain

Sequence of Beta-lactamase OXA-1 (Escherichia coli) (P13661 whole entry): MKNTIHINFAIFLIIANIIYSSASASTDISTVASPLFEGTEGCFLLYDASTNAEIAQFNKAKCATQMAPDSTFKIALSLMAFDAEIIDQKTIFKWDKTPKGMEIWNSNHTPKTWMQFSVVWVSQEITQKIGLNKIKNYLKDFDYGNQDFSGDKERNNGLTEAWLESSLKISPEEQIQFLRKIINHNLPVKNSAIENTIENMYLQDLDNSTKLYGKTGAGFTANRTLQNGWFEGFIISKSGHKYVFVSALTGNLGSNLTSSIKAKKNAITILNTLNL
Sequence of Beta-lactamase (Enterobacter cloacae) (P05364 21-381 limits assumed): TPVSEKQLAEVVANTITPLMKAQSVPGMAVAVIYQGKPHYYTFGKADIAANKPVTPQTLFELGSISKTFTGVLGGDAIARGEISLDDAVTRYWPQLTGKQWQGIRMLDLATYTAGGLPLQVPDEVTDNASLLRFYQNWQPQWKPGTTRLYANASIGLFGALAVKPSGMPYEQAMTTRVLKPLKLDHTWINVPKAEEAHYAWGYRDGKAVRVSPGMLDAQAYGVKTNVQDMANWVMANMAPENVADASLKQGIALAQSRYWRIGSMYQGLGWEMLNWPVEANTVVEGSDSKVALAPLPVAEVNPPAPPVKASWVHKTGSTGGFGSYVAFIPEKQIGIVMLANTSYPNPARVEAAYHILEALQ
Sequence of Beta-lactamase (Staphylococcus aureus) (P00807 whole entry): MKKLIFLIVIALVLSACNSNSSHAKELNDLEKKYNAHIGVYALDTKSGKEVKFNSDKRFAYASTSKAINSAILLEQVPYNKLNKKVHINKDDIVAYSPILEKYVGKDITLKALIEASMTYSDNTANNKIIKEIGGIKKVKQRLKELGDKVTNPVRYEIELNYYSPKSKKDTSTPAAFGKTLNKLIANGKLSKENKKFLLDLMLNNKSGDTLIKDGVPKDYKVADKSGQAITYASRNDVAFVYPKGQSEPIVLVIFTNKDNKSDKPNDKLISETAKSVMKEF
Sequence of Beta-lactamase TEM (Escherichia coli) (P62593 whole entry): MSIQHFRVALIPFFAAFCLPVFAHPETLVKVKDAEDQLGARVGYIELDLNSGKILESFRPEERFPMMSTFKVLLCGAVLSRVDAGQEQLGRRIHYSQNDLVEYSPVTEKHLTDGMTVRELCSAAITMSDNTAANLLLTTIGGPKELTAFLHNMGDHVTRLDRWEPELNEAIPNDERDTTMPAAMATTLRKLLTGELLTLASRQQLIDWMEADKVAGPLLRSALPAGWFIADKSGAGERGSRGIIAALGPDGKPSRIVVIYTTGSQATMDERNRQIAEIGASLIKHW

Structure (SMILES) | MIC [1] [mg/L] | MIC [2] [mg/L] | MIC [3] [mg/L] | MIC [4] [mg/L] | MIC [5] [mg/L] | MIC [6] [mg/L] | MIC [7] [mg/L] | MIC [8] [mg/L] | MIC [9] [mg/L] | MIC [10] [mg/L] | MIC [11] [mg/L] | MIC [12] [mg/L] | MIC [13] [mg/L] | MIC [14] [mg/L] | MIC [15] [mg/L] | MIC [16] [mg/L] | MIC [17] [mg/L]
C[C@H](O)[C@H]1C(=O)N2[C@@H]1S/C(=C\CO)[C@@H]2C(=O)O | > 100 | 1.56 | < 0.39 | < 0.39 | 3.12 | > 100 | > 100 | > 100 | > 100 | 6.25 | 6.25 | – | – | – | – | – | –
CC1(C)S[C@@H]2[C@H](NC(=O)[C@H](N)c3ccccc3)C(=O)N2[C@H]1C(=O)O | – | – | – | – | – | – | – | – | – | – | – | 12.5 (≈ 35.8 µM) | 100 (≈ 286 µM) | > 100 | > 100 | > 100 | 1.56 (≈ 4.46 µM)
